{"source": "patent US12227548B2", "about": "“Use of IRE1α-XBP1 signaling pathway biomarkers for modulating immune responses” (Dana-Farber Cancer Institute, Inc., priority 2018, dated 2025)", "key": {"[1]": {"system": "mouse NK cells", "assay": "Ex vivo expansion of mouse NK cells (Myc^OE and littermate control) with IL-2 and IL-15, CTV dilution", "format": "cell-based", "details": "IL-2 and IL-15 for 3 days, FIG. 15B", "procedure": "FIG. 15A-FIG. 15E show the restoration of c-Myc in the absence of IRE1 rescues the NK cell proliferation defect. […] FIG. 15C-FIG. 15E show WT (Myc^fsf/+ IRE1^f/f Ncr1^Cre−), IRE1^NK (Myc^+/+ IRE1^f/f Ncr1^Cre+) Myc^OE (Myc^fsf/+ IRE1^+/+ Ncr1^Cre+) and Myc^OE IRE1^NK (Myc^fsf/+ IRE1^f/f Ncr1^Cre+) NK cells pre-labeled with CTV and cultured ex vivo with IL-2 and IL-15. […] P values are as indicated; ns=not significant. One sample t-test is performed on FIG. 15A. One-way analysis of variance (ANOVA) with the Tukey post-test is performed on FIGS. 15C-15E. All error bars are s.e.m. N=5 mice/group in FIG. 15A, n=2 mice/group in FIG. 15B and n=4 mice/group in FIGS. 15C-15E. […] Experiments in FIGS. 15B-15E were independently repeated three times.\nFor FIG. 1E, ˜2×10^5 sorted splenic NK cells were stimulated for 16 hr in complete RPMI containing 10% FBS with recombinant mouse IL-2 ([…]; BioLegend), either in the presence or absence of IL-12 (20 ng/ml; Peprotech) and IL-18 (10 ng/ml; R&D Systems). For ex vivo NK cell expansion experiments, 2.5×10^5 sorted NK cells (>97% purity) were stimulated in RPMI supplemented with 10% FBS, penicillin-streptomycin, L-glutamine and β-mercaptoethanol, and with recombinant mouse IL-2 (10 ng/ml; R&D Systems) and IL-15/15R (40 ng/ml; eBioscience) re-applied every other day. […]"}, "[2]": {"system": "primary human NK cells", "assay": "Ex vivo expansion of primary human NK cells with IL-2 and IL-15, CTV dilution", "format": "cell-based", "procedure": "Equal numbers of NK cells from wild-type and IRE1^NK donors were labelled with cell proliferation tracing dye CTV, and then co-transferred into lymphocyte-lacking recipient Rag2-/-Il2rg-/- mice. Flow cytometric evaluation of NK cell expansion and proliferation was performed in the spleen of recipient mice at day 3-5 after transfer. […] IRE1^NK and IRE1^f/f NK cells from littermate animals were pre-labeled with CTV and cultured ex vivo with IL-2 and IL-15 for the indicated number of days. […] Two-way analysis of variance (ANOVA) with the Sidak post-test performed on FIGS. 7B and 7D. Two tailed unpaired Student's t-test performed on FIG. 7C. One-way analysis of variance (ANOVA) with the Tukey post-test performed on FIG. 7G. Two tailed paired Student's t-test performed on FIGS. 7F, 7I and 7J. All error bars show the standard deviation. Data are representative of three (FIGS. 7B and 7C) and two (FIGS. 7D-7E and 7G-7H) independent repeats. Data in FIGS. 7F, 7I and 7J are pooled from two independent repeats. N equals 2 mice/group in FIG. 7B. N equals 4 mice/group in FIGS. 7C, 7G and 7H. N equals 3 mice/group (and technical duplicates for ex vivo culture) in FIGS. 7D and 7E. N equals 6, 5 and 5 PBMC donors in FIGS. 7F, 7I and 7J. Peripheral blood mononuclear cells (PBMCs) from healthy donors (New York Blood Center) were isolated by density gradient centrifugation with Ficoll (GE Healthcare). […]"}, "[3]": {"system": "human primary NK cells", "assay": "Metabolic flux assay (oxygen consumption rate) of IL-12 and IL-18 activated human primary NK cells", "format": "cell-based", "details": "IL-12 and IL-18 for 16 hr, inhibitor 5 μM; FIG. 14C", "procedure": "Genes were clustered by functional annotation. c-Myc-regulated genes (Morrish and Hockenbery (2014) Cold Spring Harb. Perspect. Med. 4:a014225) are shown in black text on the right. […] Primary human NK cells isolated from PBMC were incubated with IL-12 and IL-18 for 16 hr, in the presence or absence of the IRE1α inhibitor 4μ8C (5 uM). Approximately 600,000 cells were plated per well, and the data were normalized to total protein quantification. Oligo (Oligomycin, 1 μM), FCCP (carbonyl cyanide-p-(trifluoromethoxy) phenylhydrazone, 1 μM), R (rotenone, 0.5 μM) and A (antimycin, 0.5 μM).\nPurified human primary NK cells from healthy PBMC donors were stimulated with human recombinant IL-12 and IL-18 for 16 hr in complete RPMI medium, in the presence or absence of IRE1 inhibitor 4μ8C (5 μM). After incubation, NK cells were collected, thoroughly washed and then subjected to Seahorse analyses using non-buffered XF base medium containing 25 mM glucose, 2 mM L-glutamine, and 1 mM sodium Pyruvate but lacking serum. […] 6×10^5 NK cells were plated and OCR measurements were analyzed on an XFe96 Extracellular Flux Analyzer (Agilent). After basal OCR measurements were obtained, an OCR trace was recorded in response to oligomycin (1 μM), carbonyl cyanide-p-(trifluoromethoxy) phenylhydrazone (FCCP, 1 μM), and rotenone and antimycin (0.5 μM each) following the XF Cell Mito Stress test kit (Agilent). […]"}, "[4]": {"system": "c-Myc promoter activation in Myc^GFP NK cells", "assay": "c-Myc reporter (Myc^GFP) expression in splenic NK cells treated with cytokines", "format": "cell-based, mouse", "details": "FIG. 9H", "procedure": "Genes were clustered by functional annotation. […] Equal numbers of Ly49H^+ NK cells from wild type and knockout donors were co-transferred into recipient Ly49H-deficient mice 1 day before infection. […] Anti-XBP1s Ab was used and IgG was used as mock control. FIG. 9H show the representative flow cytometric plots (left) and quantification of c-Myc reporter expression. Before assessment, splenic NK cells from c-Myc reporter mice (Myc^GFP) were treated with indicated cytokines for 16 hours, either in the presence or absence of the IRE1 inhibitor (IRE1i) 4μ8c. […] Equal numbers of Ly49H^+ NK cells from wild type and Myc^NK donors were co-transferred into recipient Ly49H− deficient mice 1 day before infection. […] One sample t-test performed on FIG. 9J. Two tailed unpaired Student's t-test performed on FIG. 9D and FIG. 9G. Two-way analysis of variance (ANOVA) with the Sidak post-test performed on FIGS. 9E, and 9I. […] Each column in FIG. 9B is a different mouse. Data are representative of three (FIGS. 9C-9E and FIG. 9G) and two independent repeats (FIGS. 9F, 9H, 9I and 9J). Data were independently repeated three (FIGS. 9D and 9H) and two (FIGS. 9G-9J). N equals 3 or 4 mice/group in FIG. 9D and FIG. 9J; n equals 3 technical replicates/group in FIG. 9G; n equals 3 replicates/treatment in ex vivo culture in FIG. 9H; n equals 5 mice/group in FIG. 9I. […]"}, "[5]": {"system": "Chop and IRE1α/XBP1 pathway in NK cells", "assay": "Ex vivo incubation of splenic NK cells with tunicamycin, XBP1 splicing assay and qRT-PCR of UPR genes", "format": "cell-based, mouse", "details": "4 hours ex vivo incubation, FIG. 3A", "description": "The quantitative real time PCR data were presented as relative expression to β-Actin. […] BM NK cells were identified by Lin^−CD122 and splenic NK cells were identified by Lin^−NK1.1^+. Ns indicates “not significant”, * indicates p<0.05, ** indicates p<0.01, *** indicates p<0.001 and **** indicates p<0.0001. Two tailed unpaired Student's t-test performed on FIG. 3A. All error bars show standard deviation. N equals 3 mice/group in FIG. 3A and FIG. 3D. N equals 5 mice/group in FIGS. 3B-3C and FIG. 3F. N equals 10 mice in FIG. 3E. Experiments were independently repeated three (FIGS. 3A-3C and 3E-3F) and two ([…] FIG. 3D) times.\nCells were pre-enriched (Miltenyi Biotec) and then sorted to >95% purity and RNA was isolated using the RNeasy® RNA purification mini (for 5×10^5 cells or beyond) or micro (for <5×10^5 cells) kit (Qiagen) according to the manufacturer's protocol. From purified RNA, cDNA was synthesized using the reverse-transcriptase kit gScript™ cDNA synthesis kit (Quanta Biosciences). Quantitative real time PCR (qRT-PCR) was performed in triplicates in a 384-well plate using Taqman® Probes (Themo Fisher) or SYBR® Green (Quanta Biosciences)-based detection on an ABI QuantStudio™ 6 Flex qRT-PCR machine. For experiments in FIG. 9D, CellDirect™ One-Step qRT-PCR Kit with Rox (Life Technologies) was used according to the manufacturer's instruction. […]"}}, "data": [{"compound": "Cc1cc(=O)oc2c(C=O)c(O)ccc12", "note": "[4μ8c, 8-formyl-7-hydroxy-4-methylcoumarin]", "values": [{"measurement": "proliferation of NK cells from Myc^OE mice", "setting": "[1]; inhibitor 5 μM vs DMSO", "result": "proliferated to a comparable extent as in the DMSO-treated control group"}, {"measurement": "proliferation of NK cells from WT littermates", "setting": "[1]; inhibitor 5 μM", "result": "impaired in proliferation"}, {"measurement": "proliferation of CD56^bright versus CD56^dim NK cells", "setting": "[2]; IL-2 and IL-15, day 6, FIG. 7I", "result": "primarily hindered the proliferation of CD56^bright NK cells"}, {"measurement": "proliferation of primary human NK cells", "setting": "[2]; cultured in IL-2 and IL-15, 5 μM inhibitor vs DMSO, day 6, FIG. 7F", "result": "significant reduction in proliferation"}, {"measurement": "levels of OXPHOS (basal OCR)", "setting": "[3]", "result": "significantly decreased levels of OXPHOS"}, {"measurement": "maximal respiration rate", "setting": "[3]", "result": "reduced maximal respiration rate"}, {"measurement": "c-Myc reporter GFP induction under IRE1α blockade", "setting": "[4]; Myc^GFP NK cells stimulated with IL-15, or IL-12 and IL-18, 16 hours", "result": "GFP induction was largely impeded"}]}, {"compound": "IL-15: recombinant cytokine IL-15", "values": [{"measurement": "c-Myc reporter GFP", "setting": "[4]; Myc^GFP NK cells, 16 hours, in the absence of 4μ8c", "result": "c-Myc reporter GFP was induced"}]}, {"compound": "tunicamycin", "values": [{"measurement": "Chop expression", "setting": "[5]", "result": "strongly triggered Chop expression"}, {"measurement": "IRE1α/XBP1 pathway", "setting": "[5]", "result": "upregulation of the IRE1α/XBP1 pathway"}]}]}
